Laboratory results from ChEMBL document CHEMBL1151214, “Pentacyclic triterpenoid esters from the fruits of Bruguiera cylindrica” (J Nat Prod, 2004).
Values after ≈ are worked out from the molar mass of the structure shown. Active and inactive are the calls of the source. The calls are words filed in the database; no cut-off is given here.

What was measured:
Format in all cases: functional, cell-based
NCI-H187 = test: Cytotoxicity against human NCI-H187 cells by colorimetric method
BC = test: Cytotoxicity against human BC cells by colorimetric method
KB = test: Cytotoxicity against human KB cells by colorimetric method

Row | SMILES | IC50 (NCI-H187) [µg/mL] | Activity (BC) | Activity (KB) | Activity (NCI-H187)
1 | CC1(C)CC[C@]2(C)CC=C3[C@]4(C)CC[C@H]5C(C)(C)[C@H](OC(=O)/C=C\c6ccc(O)cc6)CC[C@]5(C)[C@H]4CC[C@@]3(C)[C@@H]2C1 | 20 (≈ 34.9 µM) | inactive | inactive | 
2 | CC1(C)CC[C@]2(C)CC=C3[C@]4(C)CC[C@H]5C(C)(C)[C@H](OC(=O)/C=C/c6ccc(O)cc6)CC[C@]5(C)[C@H]4CC[C@@]3(C)[C@@H]2C1 |  | inactive | inactive | inactive
3 | COc1cc(/C=C\C(=O)O[C@@H]2CC[C@]3(C)[C@H]4CC[C@]5(C)C(=CC[C@@]6(C)CCC(C)(C)C[C@H]65)[C@]4(C)CC[C@H]3C2(C)C)ccc1O | 12.2 (≈ 20.2 µM) | inactive | inactive | 
4 | COc1cc(/C=C/C(=O)O[C@H]2CC[C@]3(C)[C@H]4CC[C@]5(C)C(=CC[C@@]6(C)CCC(C)(C)C[C@H]65)[C@]4(C)CC[C@H]3C2(C)C)ccc1O |  | inactive | inactive | inactive
5 | COc1cc(/C=C/C(=O)O[C@@H]2CC[C@]3(C)[C@H]4CC[C@]5(C)C(=CC[C@@]6(C)CCC(C)(C)C[C@H]65)[C@]4(C)CC[C@H]3C2(C)C)ccc1O |  | inactive | inactive | inactive
